{"source": "paper PMC10227015", "about": "“From a drug repositioning to a structure-based drug design approach to tackle acute lymphoblastic leukemia” (Nature Communications, 2023)", "key": {"dCK-C3S-S74E [1]": {"system": "dCK-C3S-S74E", "sequence (P27707 whole entry S74E, form open)": "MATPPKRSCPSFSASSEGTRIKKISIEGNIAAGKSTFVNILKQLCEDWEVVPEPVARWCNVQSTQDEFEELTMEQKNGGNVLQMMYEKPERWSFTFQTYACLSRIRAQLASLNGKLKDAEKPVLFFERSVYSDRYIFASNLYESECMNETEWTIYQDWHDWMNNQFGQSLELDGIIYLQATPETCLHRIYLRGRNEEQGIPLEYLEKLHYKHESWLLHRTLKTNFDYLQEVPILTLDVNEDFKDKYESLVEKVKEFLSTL", "assay": "Thermal shift assay (TSA)", "description": "BL21 pRIL Escherichia coli cells were transformed with dCK-plasmids (dCK-C4S-S74E (for crystallization assays) and dCK-C3S-S74E (for TSA, enzymatic and ITC assays)). […] Protein dCK-C3S-S74E used for other assays contained only three mutated cysteines. The S74E mutation mimics the phosphorylated state of this serine, which favors the open conformation of the enzyme, making it competent for nucleoside binding[45] to evaluate the binding affinity with compounds.\nFor binding assays (TSA, ITC and crystallography) cells were re-suspended in 50 mM TRIS, pH 8, 500 mM NaCl, 30 mM imidazole and 10% glycerol buffer and one EDTA free anti-protease tablet was added (Roche). After sonication and centrifugation (30,000 × g), the supernatant was loaded on a 5 ml HisTrap FF column (GE healthcare) pre-equilibrated with resuspension buffer. Protein was then eluted by resuspension buffer containing 500 mM imidazole. Protein eluted fractions were mixed and concentrated. Protein was further purified by size exclusion chromatography (superdex 200 16/600, GE healthcare) in 20 mM HEPES, pH 7.5, and 200 mM NaCl before concentration to 30 mg/ml and storage at −80 °C.\nThermal shift assay (TSA) experiments were performed in 384-well PCR white plates in the assay buffer containing 20 mM HEPES, pH 7.5 and 200 mM NaCl. […] Plates were centrifuged at 200 × g for 2 min at 4 °C. […] Raw fluorescence data were treated, and the melting temperatures (Tm) were calculated using CFX Manager 3.1 software (Bio-Rad). ΔTm represents the difference in Tm between the protein in the presence of compound and the protein alone (both at 2% DMSO). Each experiment was performed at least twice (with technical triplicates) and data are presented as the mean ± SD."}, "CCRF-CEM cell line": {"system": "CCRF-CEM cell line", "assay": "dCK cellular assay: CCRF-CEM proliferation in the presence of dT and dC", "type": "cell-based, human", "details": "Homo sapiens, CCRF-CEM", "outline": "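Two conditions in T-ALL CCRF-CEM cells: compound only, and compound with thymidine blocking de novo synthesis and deoxycytidine rescuing via dCK. Metabolic dye fluorescence (560/590 nm) gives % proliferation vs DMSO; IC50s, mean ± SD of at least three triplicate runs.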"}, "dCK-C3S-S74E [2]": {"system": "dCK-C3S-S74E", "assay": "Enzymatic assay (PK/LDH coupled), dC phosphorylation by dCK in the presence of ATP", "type": "biochemical, human", "outline": "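His-purified dCK-C3S-S74E (100 nM, or 50 nM where indicated) phosphorylated 100 µM dC with 1 mM ATP in 50 mM HEPES pH 7.5, 5 mM MgCl2, 1 mM DTT, 100 mM KCl, coupled via PK/LDH/PEP/300 µM NADH. NADH fluorescence decrease (ex 337/em 460 nm) gave velocities normalized to drug-free control; IC50 by nonlinear regression, triplicates.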"}}, "note": "Read-outs that look alike come from different tables or passages of the source.", "data": [{"compound": "Cc1ccc(NC(=O)c2ccc(CN3CCN(C)CC3)cc2)cc1Nc1nc(-c2nc(N)cc(N)n2)cs1", "note": "[dCKi2, N-(3-((4-(4,6-diaminopyrimidin-2-yl)thiazol-2-yl)amino)-4-methylphenyl)-4-((4-methylpiperazin-1-yl)methyl)benzamide]", "values": [{"measurement": "ΔTm, dCK thermal stabilization (TSA)", "setting": "dCK-C3S-S74E [1]; 5 μM protein, 50 μM compound", "value": 17.3, "unit": "°C"}, {"measurement": "Thermal Shift Assay Mean (ΔTm (º))", "setting": "dCK-C3S-S74E [1]; Figure 1b", "value": "17.3 º"}, {"measurement": "THERMAL SHIFT ASSAY +Tm (°)", "setting": "dCK-C3S-S74E [1]; mean ± SD", "value": "17.3 ± 0.2", "unit": "°"}, {"measurement": "activity at 0.078 µM", "setting": "CCRF-CEM cell line; 78 nM, dT 200 µM + dC 1 µM, read-out: Cell proliferation of the CCRF-CEM cell line Mean (% prolif)", "value": 95.9, "unit": "%"}, {"measurement": "activity at 0.156 µM", "setting": "CCRF-CEM cell line; 156 nM, dT 200 µM + dC 1 µM, read-out: Cell proliferation of the CCRF-CEM cell line Mean (% prolif)", "value": 91.9, "unit": "%"}, {"measurement": "activity at 0.312 µM", "setting": "CCRF-CEM cell line; 312 nM, dT 200 µM + dC 1 µM, read-out: Cell proliferation of the CCRF-CEM cell line Mean (% prolif)", "value": 100, "unit": "%"}, {"measurement": "activity at 0.625 µM", "setting": "CCRF-CEM cell line; 625 nM, dT 200 µM + dC 1 µM, read-out: Cell proliferation of the CCRF-CEM cell line Mean (% prolif)", "value": 95.6, "unit": "%"}, {"measurement": "activity at 1.25 µM", "setting": "CCRF-CEM cell line; 1250 nM, dT 200 µM + dC 1 µM, read-out: Cell proliferation of the CCRF-CEM cell line Mean (% prolif)", "value": 94.5, "unit": "%"}, {"measurement": "activity at 2.5 µM", "setting": "CCRF-CEM cell line; 2500 nM, dT 200 µM + dC 1 µM, read-out: Cell proliferation of the CCRF-CEM cell line Mean (% prolif)", "value": 86, "unit": "%"}, {"measurement": "activity at 5 µM", "setting": "CCRF-CEM cell line; 5000 nM, dT 200 µM + dC 1 µM, read-out: Cell proliferation of the CCRF-CEM cell line Mean (% prolif)", "value": 58.8, "unit": "%"}, {"measurement": "activity at 10 µM", "setting": "CCRF-CEM cell line; 10000 nM, dT 200 µM + dC 1 µM, read-out: Cell proliferation of the CCRF-CEM cell line Mean (% prolif)", "value": 29.6, "unit": "%"}, {"measurement": "activity at 20 µM", "setting": "CCRF-CEM cell line; 20000 nM, dT 200 µM + dC 1 µM, read-out: Cell proliferation of the CCRF-CEM cell line Mean (% prolif)", "value": 14, "unit": "%"}, {"measurement": "activity at 40 µM", "setting": "CCRF-CEM cell line; 40000 nM, dT 200 µM + dC 1 µM, read-out: Cell proliferation of the CCRF-CEM cell line Mean (% prolif)", "value": 6.8, "unit": "%"}, {"measurement": "activity at 10 µM", "setting": "CCRF-CEM cell line; compound 10 µM + dT 111 µM + dC 1 µM, 72 h, read-out: Cell proliferation of the CCRF-CEM cell line Mean (% prolif)", "value": 42.3, "unit": "%"}, {"measurement": "IC50", "setting": "CCRF-CEM cell line; read-out: dCK CELLULAR ASSAY IC50 (nM), 200 µM dT and 1 µM dC, read-out: dCK […] ASSAY IC50", "value": "8910 ± 3340", "unit": "nM"}, {"measurement": "IC50", "setting": "CCRF-CEM cell line; dT 200 µM + dC 1 µM, 72 h, read-out: IC50 cell proliferation", "value": 8900, "unit": "nM"}, {"measurement": "Enzymatic activity (ATP) Mean (% activity)", "setting": "dCK-C3S-S74E [2]; 0.16 µM", "value": 97.2, "unit": "%"}, {"measurement": "Enzymatic activity (ATP) Mean (% activity)", "setting": "dCK-C3S-S74E [2]; 0.31 µM", "value": 85.8, "unit": "%"}, {"measurement": "Enzymatic activity (ATP) Mean (% activity)", "setting": "dCK-C3S-S74E [2]; 0.63 µM", "value": 62.1, "unit": "%"}, {"measurement": "Enzymatic activity (ATP) Mean (% activity)", "setting": "dCK-C3S-S74E [2]; 1.25 µM", "value": 35.4, "unit": "%"}, {"measurement": "Enzymatic activity (ATP) Mean (% activity)", "setting": "dCK-C3S-S74E [2]; 2.5 µM", "value": 16.5, "unit": "%"}, {"measurement": "Enzymatic activity (ATP) Mean (% activity)", "setting": "dCK-C3S-S74E [2]; 5 µM", "value": 3.9, "unit": "%"}, {"measurement": "Enzymatic activity (ATP) Mean (% activity)", "setting": "dCK-C3S-S74E [2]; 10 µM", "value": 3.9, "unit": "%"}, {"measurement": "Enzymatic activity (ATP) Mean (% activity)", "setting": "dCK-C3S-S74E [2]; 20 µM", "value": 2.6, "unit": "%"}, {"measurement": "Enzymatic activity (ATP) Mean (% activity)", "setting": "dCK-C3S-S74E [2]; 40 µM", "value": 5.2, "unit": "%"}, {"measurement": "IC50", "setting": "dCK-C3S-S74E [2]; presence of ATP, [dCK] = 100 nM, read-out: ENZYMATIC ASSAY IC50", "value": "0.903 ± 0.037", "unit": "µM"}]}]}
